System: rats exposed to a low-pressure blast wave
Conditions: 30 days supplementation, 33/49

NCCC(=O)O [BA, beta-alanine]
prevalence of well-adapted animals: 67%

Source: patent US20180064153A1, “Methods of Protecting Against Brain Injury” (priority 2016, published 2018)
